Reference: patent US20250002473A1, “QUINOXALINE DERIVED SULFONAMIDES WITH EGFR DEGRADATION ACTIVITIES AND THEIR USES THEREOF” (Accutar Biotechnology Inc., priority 2023, published 2025)

Assays:
Type in all cases: cell-based
BaF3_DTC = assay: Cell growth inhibition assay (CellTiter-Glo), BaF3_DTC; settings: 72 h; Table 6; BaF3_DTC cells, three days, CellTiter-Glo; read-out: BaF3_DTC GI50
Protocol: (§1) Cells were seeded in a 96-well plate (Corning 3610) with 90 μL of culture medium per well, and plates were incubated at 37° C. overnight. A 1,000× DMSO stock solution of the desired compound was prepared the following day. A compound dilution plate was prepared by diluting the stock solution 1:100 in the corresponding cell culture medium, 10 μL of the diluted compound solution was added to each 96-well plate well containing the seeded cells. […] The content of the wells was mixed by shaking continuously for 10 min, and luminescence was measured using Envision (PerkinElmer). The data were analyzed with GraphPad Prism 9 (see FIG. 50).
(§2) Table 6, Table 7, and Table 8 list the cell growth inhibition results, where Gls0 represents the compound concentration to cause 50% cell growth inhibition in comparison with DMSO.

[1] = system: BaF3_DTC (EGFR_Exon19del/T790M/C797S); assay: EGFR degradation assay (western blot), BaF3_DTC cells; settings: BaF3_DTC cells (EGFR_Exon19del/T790M/C797S), compounds 24 h, western blot; read-out: BaF3_DTC DC50
Protocol: (§3) A431 (EGFR_WT), NCl-H2073 (EGFR_WT), NCl-H292 (EGFR_WT), BaF3_YVAM (Her2_A775insYVAM), BaF3_SVD (EGFR_D770insSVD), BaF3_ASV (EGFR_A776inASV), or BaF3_DTC (EGFR_Exon19del/T790M/C797S) cells were seeded in a 24-well plate at a density of 4×10^5 cells per well for EGFR WT cells and 8× cells per well for EGFR or Her2 mutant cells, and the plates were incubated overnight. The cells were treated with the desired compounds for 24 h. The culture medium was removed, and 100 μL of RIPA buffer (Beyotime, P0013B) containing 1% Protease Inhibitor Cocktail (Bimake, B14001), 1% Phosphatase Inhibitor Cocktail 2 (Sigma, P5726), and 1% Phosphatase Inhibitor Cocktail 3 (Sigma, P0044) were added to lyse the cells. Then, the cell lysates were transferred to 1.5 mL microcentrifuge tubes and centrifuged at 12,000 rpm and 4° C. for 30 min. The supernatants were transferred into new tubes, and the protein concentration was determined using the BCA protein quantification method. All samples were diluted to the same concentration using RIPA buffer, loading buffer was added, samples were denatured, and 15 μg of protein per lane was loaded onto a SurePAGE 4-20% Bis-Tris gel. Samples were separated via electrophoresis in MOPS running buffer at 180 V for 100 min. Then, proteins were transferred onto PVDF membranes using the MiniBlot™ Electrophoretic Transfer Cell Device (Beyotime, E6050). The membrane was blocked using block buffer (LI-COR 927-60001) to prevent non-specific binding. The membrane was incubated with primary antibodies (1:500 dilution, EGFR-CST4405, 1:2000 dilution, Tubulin-ABclonal #AC021) at 4° C. overnight. The membrane was washed three times with 1× TBST buffer for 15 min each. The membrane was incubated with secondary antibodies IRDye 680RD Goat anti-Rabbit IgG Secondary Antibody (1:2000 dilution, LI-COR 926-68071) and IRDye 800CW Goat anti-Mouse IgG Secondary Antibody (1:2000 dilution, LI-COR 926-32210). Finally, the membrane was washed again with 1× TBST buffer 3 times. Fluorescence was detected using the Odyssey CLx Imaging System, and the data were analyzed with Empiria Studio Software and GraphPad Prism 9. Table 4 and Table 5 list the degradation results, where the degradation potency is represented by DC50, the concentration of compounds to cause the degradation of 50% of the corresponding proteins. FIGS. 45-49 show western blots illustrating the EGFR degradative activity of exemplary Compound of the present disclosure and a comparator Compound A in different cell lines 24 h after administration. The Compound referred herein as Compound A is disclosed in WO 2022/171123 A1 (see, compound 133, page 46; published Aug. 18, 2022). WO 2022/171123 A1 discloses phosphine oxide derived molecules with EGFR degradation activity.

BaF3_ASV = assay: Cell growth inhibition assay (CellTiter-Glo), BaF3_ASV; settings: 72 h; Table 6; BaF3_ASV cells, three days, CellTiter-Glo; read-out: BaF3_ASV GI50
Protocol: as §1, §2

A431 = assay: Cell growth inhibition assay (CellTiter-Glo), A431; settings: Homo sapiens, A-431, 72 h, Table 6; A431 cells, three days, CellTiter-Glo; read-out: A431 GI50
Protocol: as §1, §2

[2] = biological target: T1, BaF3_ASV (EGFR_A776inASV) (Homo sapiens, UniProt P00533, DUP767-769); assay: EGFR degradation assay (western blot), BaF3_ASV cells; settings: BaF3_ASV cells, compounds 24 h, western blot; read-out: BaF3_ASV DC50
T1 construct: expressed in transfected cells; host or cells: Ba/F3 (engineered)
Protocol: as §3

T1 sequence (P00533 with tags, fused parts or gaps DUP767-769): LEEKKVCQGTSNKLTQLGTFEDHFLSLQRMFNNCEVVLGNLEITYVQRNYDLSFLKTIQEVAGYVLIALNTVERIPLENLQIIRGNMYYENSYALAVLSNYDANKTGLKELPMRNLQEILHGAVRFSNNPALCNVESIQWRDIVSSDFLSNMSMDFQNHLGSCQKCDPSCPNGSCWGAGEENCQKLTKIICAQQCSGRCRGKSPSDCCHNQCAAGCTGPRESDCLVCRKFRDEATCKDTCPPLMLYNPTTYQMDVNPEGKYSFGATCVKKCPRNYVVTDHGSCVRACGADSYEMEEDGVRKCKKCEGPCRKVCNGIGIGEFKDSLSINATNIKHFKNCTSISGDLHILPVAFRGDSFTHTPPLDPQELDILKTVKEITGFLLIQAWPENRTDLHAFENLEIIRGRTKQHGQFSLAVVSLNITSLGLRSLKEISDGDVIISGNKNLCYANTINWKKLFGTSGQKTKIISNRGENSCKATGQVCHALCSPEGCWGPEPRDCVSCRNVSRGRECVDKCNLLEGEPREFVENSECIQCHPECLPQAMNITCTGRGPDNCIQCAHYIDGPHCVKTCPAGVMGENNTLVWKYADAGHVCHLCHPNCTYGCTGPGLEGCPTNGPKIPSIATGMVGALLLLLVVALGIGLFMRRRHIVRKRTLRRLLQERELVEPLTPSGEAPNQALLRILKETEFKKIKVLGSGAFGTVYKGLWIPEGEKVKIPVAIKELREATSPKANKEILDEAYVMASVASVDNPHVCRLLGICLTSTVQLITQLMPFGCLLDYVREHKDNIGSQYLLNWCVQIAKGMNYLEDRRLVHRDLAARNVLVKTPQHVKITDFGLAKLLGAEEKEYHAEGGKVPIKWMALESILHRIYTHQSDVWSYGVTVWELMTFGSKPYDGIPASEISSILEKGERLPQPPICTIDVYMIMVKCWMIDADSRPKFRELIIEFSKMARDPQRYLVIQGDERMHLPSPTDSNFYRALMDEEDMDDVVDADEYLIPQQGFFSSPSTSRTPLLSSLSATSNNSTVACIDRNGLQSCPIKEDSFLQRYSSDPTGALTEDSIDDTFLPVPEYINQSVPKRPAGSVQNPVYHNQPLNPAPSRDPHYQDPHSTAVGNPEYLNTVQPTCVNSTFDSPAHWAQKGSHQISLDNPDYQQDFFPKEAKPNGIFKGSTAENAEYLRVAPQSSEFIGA

Compound | GI50 (BaF3_DTC) [nM] | DC50 [1] [nM] | GI50 (BaF3_ASV) [nM] | GI50 (A431) [nM] | DC50 [2] [nM]
CCc1cc(Nc2ncc(Br)c(Nc3ccc4nccnc4c3NS(C)(=O)=O)n2)c(OC)cc1N1CCC(N2CCN(CC3CC4(CCN(c5ccc6c(c5)CN(C5CCC(=O)NC5=O)C6=O)CC4)C3)CC2)CC1 (centres unmarked) [Compound 47, N-(6-((5-bromo-2-((4-(4-(4-((7-(2-(2,6-dioxopiperidin-3-yl)-1-oxoisoindolin-5-yl)-7-azaspiro[3.5]nonan-2-yl)methyl)piperazin-1-yl)piperidin-1-yl)-5-ethyl-2-methoxyphenyl)amino)pyrimidin-4-yl)amino)quinoxalin-5-yl)methanesulfonamide] | 12.1 | 14.5 | 47.5 | > 1000 | –
CCc1cc(Nc2ncc(Br)c(Nc3ccc4nccnc4c3NS(C)(=O)=O)n2)c(OC)cc1N1CCC2(CC1)CN(CC1CCN(c3ccc4c(c3)CN(C3CCC(=O)NC3=O)C4=O)CC1)C2 (centres unmarked) [Compound 40, N-(6-((5-bromo-2-((4-(2-((1-(2-(2,6-dioxopiperidin-3-yl)-1-oxoisoindolin-5-yl)piperidin-4-yl)methyl)-2,7-diazaspiro[3.5]nonan-7-yl)-5-ethyl-2-methoxyphenyl)amino)pyrimidin-4-yl)amino)quinoxalin-5-yl)methanesulfonamide] | 7.99 | 20.8 | 60.2 | 399 | 93.8
CCc1cc(Nc2ncc(Br)c(Nc3ccc4nccnc4c3NS(C)(=O)=O)n2)c(OC)cc1N1CCC(N2CC(CN3CCN(c4ccc5c(c4)CN([C@H]4CCC(=O)NC4=O)C5=O)CC3)C2)CC1 [Compound 62, (S)-N-(6-((5-bromo-2-((4-(4-(3-((4-(2-(2,6-dioxopiperidin-3-yl)-1-oxoisoindolin-5-yl)piperazin-1-yl)methyl)azetidin-1-yl)piperidin-1-yl)-5-ethyl-2-methoxyphenyl)amino)pyrimidin-4-yl)amino)quinoxalin-5-yl)methanesulfonamide] | 19.3 | 5.18 | 130 | 383 | 75.2
CCc1cc(Nc2ncc(Br)c(Nc3ccc4nccnc4c3NS(C)(=O)=O)n2)c(OC)cc1N1CCC(N2CCN(CCNc3cccc4c3CN(C3CCC(=O)NC3=O)C4=O)CC2)CC1 (centres unmarked) [Compound 91, N-(6-((5-bromo-2-((4-(4-(4-(2-((2-(2,6-dioxopiperidin-3-yl)-1-oxoisoindolin-4-yl)amino)ethyl)piperazin-1-yl)piperidin-1-yl)-5-ethyl-2-methoxyphenyl)amino)pyrimidin-4-yl)amino)quinoxalin-5-yl)methanesulfonamide] | 9.26 | 8.04 | 48.6 | 448 | 53.7
CCc1cc(Nc2ncc(Br)c(Nc3ccc4nccnc4c3NS(C)(=O)=O)n2)c(OC)cc1N1CCN(CC2(CN3CCN(c4ccc5c(c4)CN([C@H]4CCC(=O)NC4=O)C5=O)CC3)CC2)CC1 [Compound 44, (S)-N-(6-((5-bromo-2-((4-(4-((1-((4-(2-(2,6-dioxopiperidin-3-yl)-1-oxoisoindolin-5-yl)piperazin-1-yl)methyl)cyclopropyl)methyl)piperazin-1-yl)-5-ethyl-2-methoxyphenyl)amino)pyrimidin-4-yl)amino)quinoxalin-5-yl)methanesulfonamide] | 18.4 | 4.11 | 527 | > 1000 | > 1000
CCc1cc(Nc2ncc(Br)c(Nc3ccc4nccnc4c3NS(C)(=O)=O)n2)c(OC)cc1N1CCC(N2CCC3(CCN(c4ccc5c(c4)CN(C4CCC(=O)NC4=O)C5=O)CC3)CC2)CC1 (centres unmarked) [Compound 53, N-(6-((5-bromo-2-((4-(4-(9-(2-(2,6-dioxopiperidin-3-yl)-1-oxoisoindolin-5-yl)-3,9-diazaspiro[5.5]undecan-3-yl)piperidin-1-yl)-5-ethyl-2-methoxyphenyl)amino)pyrimidin-4-yl)amino)quinoxalin-5-yl)methanesulfonamide] | 22.7 | 5.99 | 330 | > 1000 | > 1000
CCc1cc(Nc2ncc(Br)c(Nc3ccc4nccnc4c3NS(C)(=O)=O)n2)c(OC)cc1N1CCC(N2CCN(CCN3CCN(c4ccc5c(c4)CN([C@H]4CCC(=O)NC4=O)C5=O)CC3)CC2)CC1 [Compound 39, (S)-N-(6-((5-bromo-2-((4-(4-(4-(2-(4-(2-(2,6-dioxopiperidin-3-yl)-1-oxoisoindolin-5-yl)piperazin-1-yl)ethyl)piperazin-1-yl)piperidin-1-yl)-5-ethyl-2-methoxyphenyl)amino)pyrimidin-4-yl)amino)quinoxalin-5-yl)methanesulfonamide] | 11.1 | 3.13 | 73.4 | 441 | –
CCc1cc(Nc2ncc(Br)c(Nc3ccc4nccnc4c3NS(C)(=O)=O)n2)c(OC)cc1N1CCC2(CCN(CC3CCN(c4ccc5c(c4)CN(C4CCC(=O)NC4=O)C5=O)CC3)CC2)CC1 (centres unmarked) [Compound 37, N-(6-((5-bromo-2-((4-(9-((1-(2-(2,6-dioxopiperidin-3-yl)-1-oxoisoindolin-5-yl)piperidin-4-yl)methyl)-3,9-diazaspiro[5.5]undecan-3-yl)-5-ethyl-2-methoxyphenyl)amino)pyrimidin-4-yl)amino)quinoxalin-5-yl)methanesulfonamide] | 7.94 | 8.6 | 55.7 | 382 | 102
CCc1cc(Nc2ncc(Br)c(Nc3ccc4nccnc4c3NS(C)(=O)=O)n2)c(OC)cc1N1CCC(N2CCN(C3CCC4(CC3)CN(c3ccc5c(c3)CN(C3CCC(=O)NC3=O)C5=O)C4)CC2)CC1 (centres unmarked) [Compound 50, N-(6-((5-bromo-2-((4-(4-(4-(2-(2-(2,6-dioxopiperidin-3-yl)-1-oxoisoindolin-5-yl)-2-azaspiro[3.5]nonan-7-yl)piperazin-1-yl)piperidin-1-yl)-5-ethyl-2-methoxyphenyl)amino)pyrimidin-4-yl)amino)quinoxalin-5-yl)methanesulfonamide] | 13 | 38.5 | 106 | > 1000 | 95.2
CCc1cc(Nc2ncc(Br)c(Nc3ccc4nccnc4c3NS(C)(=O)=O)n2)c(OC)cc1N1CCC(CN2CCN(c3ccc4c(c3)CN([C@H]3CCC(=O)NC3=O)C4=O)CC2)CC1 [Compound 43, (S)-N-(6-((5-bromo-2-((4-(4-((4-(2-(2,6-dioxopiperidin-3-yl)-1-oxoisoindolin-5-yl)piperazin-1-yl)methyl)piperidin-1-yl)-5-ethyl-2-methoxyphenyl)amino)pyrimidin-4-yl)amino)quinoxalin-5-yl)methanesulfonamide] | 15 | 0.323 | 119 | > 1000 | –
